Assay results published in PubChem BioAssay AID651913 (NMMLSC, 2012).

Test system: MG13-hCCR5 cells, FAP-MG2p fluorogen binding, flow cytometry MCF
Test: interference with FAP-CCR5 fluorogen signal, dose response, counter-screen for beta2AR agonist project, cell-based, FAP-tagged human CCR5, Powderset5 (AID 651913)

| Compound | EC50 [nM] |
| --- | --- |
| CN(CC(=O)N1CCN(c2ccc(F)cc2)CC1)S(=O)(=O)c1cc(Cl)ccc1Cl | 54.5 |
| CN(CC(=O)N1CCN(c2ccc(F)cc2)CC1)S(=O)(=O)c1ccc(Br)cc1 | 1030 |
| O=C(C1CCCN1S(=O)(=O)c1ccc(Cl)cc1)N1CCN(c2ccccn2)CC1 (stereo not given) | 257 |
| CN(CC(=O)N1CCN(c2ccccn2)CC1)S(=O)(=O)c1ccc(Cl)cc1 | 10.8 |
| CCC1CCCCN1S(=O)(=O)c1ccc(NC(C)=O)cc1 (stereo not given) | 455 |
